Data: patent publication US11572398B2, “GLP-1 derivatives and uses thereof” (Novo Nordisk A/S, priority 2014, dated 2023)
Where two headings read alike, the source gives them in different places. Non-standard residues stand in square brackets, D forms with d. Residues, ends and D or L forms follow the SMILES beside them. *: point of attachment. X1 = O=C(O)CCCCCCCCCCCCCCCCCCC(=O)NC[C@H]1CC[C@H](C(=O)N[C@@H](CCC(=O)NCCOCCOCC(=O)NCCOCCOCC(=O)NCCOCCOCC(=O)NCCOCCOCC(=O)NCCOCCOCC(=O)NCCOCCOCC(=O)NCCCN(CCCNC(=O)COCCOCCNC(=O)COCCOCCNC(=O)COCCOCCNC(=O)COCCOCCNC(=O)COCCOCCNC(=O)COCCOCCNC(=O)CC[C@H](NC(=O)[C@H]2CC[C@H](CNC(=O)CCCCCCCCCCCCCCCCCCC(=O)O)CC2)C(=O)O)CC(=O)*)C(=O)O)CC1; Aib = CC(C)(N)C(=O)O

Columns and labels:
[1] = Pharmacokinetic study in minipigs (i.v.); conditions: male, Göttingen, minipig, in vivo, iv
Protocol: (§1) The purpose of this study is to determine the protraction in vivo of the GLP-1 derivatives after i.v. administration to minipigs, i.e. the prolongation of their time in the body and thereby their time of action. This is done in a pharmacokinetic (PK) study, where the terminal half-life of the derivative in question is determined. By terminal half-life is meant the time it takes to halve a certain plasma concentration in the terminal elimination phase.
(§2) Male Göttingen minipigs were obtained from Ellegaard Göttingen Minipigs (Dalmose, Denmark) approximately 7-14 months of age and weighing approximately 16-35 kg were used in the studies. The minipigs were housed either individually (pigs with permanent catheters) or in a group and fed restrictedly once or twice daily with SDS minipig diet (Special Diets Services, Essex, UK).
(§3) After at least 2 weeks of acclimatisation two permanent central venous catheters were implanted in vena cava caudalis or cranialis in each animal. The animals were allowed 1 week recovery after the surgery, and were then used for repeated pharmacokinetic studies with a suitable wash-out period between successive GLP-1 derivative dosings.
(§4) Blood samples (for example 0.8 ml) were collected in EDTA buffer (8 mM) and then centrifuged at 4° C. and 1942G for 10 minutes.
(§5) Plasma was pipetted into Micronic tubes on dry ice, and kept at −20° C. until analysed for plasma concentration of the respective GLP-1 compound using LOCI. Individual plasma concentration-time profiles were analyzed by a non-compartmental pharmacokinetic method in Phoenix v. 6.2 (Pharsight Inc., Mountain View, Calif., USA), or other relevant software for PK analysis, and the resulting terminal half-lives (harmonic mean) determined.

[2] = biological target: T1, human GLP-1 receptor (Homo sapiens, UniProt P43220); assay: In vitro potency: CRE luciferase reporter gene assay in BHK cells expressing the human GLP-1 receptor; assay type: cell-based; conditions: whole cell reporter gene assay, BHK cells, human GLP-1 receptor; average of at least two replicates; read-out: EC50
T1 construct: expressed in transfected cells; host or cells: BHK cells (parent line BHKTS13), clone FCW467-12A; membrane preparation
Summary of the method: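 Whole-cell assay in stably transfected BHK cells carrying CRE-driven firefly luciferase, 5×10^3 cells/well, in assay buffer with 2% ovalbumin and 0.2% Pluronic F-68. Compound working solutions were 0.2 μM.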

[3] = biological target: T1, human GLP-1 receptor; assay: GLP-1 receptor binding: competitive binding assay (125I-GLP-1, SPA) on isolated membranes at low and high HSA
[4] = in vivo; conditions: male, Göttingen, minipig, iv
Protocol: as §1, §2, §3, §4, §5

[5] = Low HSA IC50, low HSA (max. 0.001% final assay concentration)
[6] = high HSA (2.0% final assay concentration), read-out: High HSA IC50

T1 sequence (P43220 24-463): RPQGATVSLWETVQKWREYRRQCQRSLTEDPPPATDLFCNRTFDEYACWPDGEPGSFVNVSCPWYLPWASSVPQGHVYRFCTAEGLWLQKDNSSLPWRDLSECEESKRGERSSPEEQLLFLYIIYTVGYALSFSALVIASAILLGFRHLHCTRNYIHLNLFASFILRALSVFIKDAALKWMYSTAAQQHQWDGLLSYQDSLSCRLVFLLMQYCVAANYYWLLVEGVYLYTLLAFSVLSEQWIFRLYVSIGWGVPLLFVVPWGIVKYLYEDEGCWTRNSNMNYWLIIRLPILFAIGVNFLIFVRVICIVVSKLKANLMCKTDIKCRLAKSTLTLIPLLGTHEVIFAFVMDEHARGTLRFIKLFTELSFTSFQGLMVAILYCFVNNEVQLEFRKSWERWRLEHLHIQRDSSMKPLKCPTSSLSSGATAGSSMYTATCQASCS

Structure (SMILES)	half-life ([1]; 2 nmol/kg) [h]	EC50 [2] [nM]	IC50 [3, 5] [nM]	IC50 [3, 6] [nM]	half-life ([1]; 5 nmol/kg) [h]	IC50 ([3]; low HSA (max. 0.001% final assay concentration), read-out: Low HSA IC50) [nM]	half-life [4] [h]
CC[C@H](C)[C@H](NC(=O)[C@H](Cc1ccccc1)NC(=O)[C@H](CCC(=O)O)NC(=O)[C@H](CCCNC(=N)N)NC(=O)[C@H](C)NC(=O)[C@H](C)NC(=O)[C@H](CCC(N)=O)NC(=O)[C@H](CCC(=O)O)NC(=O)[C@H](CCC(=O)O)NC(=O)[C@H](CC(C)C)NC(=O)[C@H](Cc1ccc(O)cc1)NC(=O)[C@H](CO)NC(=O)[C@H](CO)NC(=O)[C@@H](NC(=O)[C@H](CC(=O)O)NC(=O)[C@H](CO)NC(=O)[C@@H](NC(=O)[C@H](Cc1ccccc1)NC(=O)[C@@H](NC(=O)CNC(=O)[C@H](CCC(=O)O)NC(=O)C(C)(C)NC(=O)[C@@H](N)Cc1c[nH]cn1)[C@@H](C)O)[C@@H](C)O)C(C)C)C(=O)N[C@@H](C)C(=O)N[C@@H](Cc1c[nH]c2ccccc12)C(=O)N[C@@H](CC(C)C)C(=O)N[C@H](C(=O)N[C@@H](CCCNC(=N)N)C(=O)NCC(=O)N[C@@H](CCCNC(=N)N)C(=O)N[C@@H](CCCCNC(=O)COCCOCCNC(=O)COCCOCCNC(=O)COCCOCCNC(=O)COCCOCCNC(=O)CN(CCCNC(=O)CC[C@H](NC(=O)[C@H]1CC[C@H](CNC(=O)CCCCCCCCCCCCCCCCCCC(=O)O)CC1)C(=O)O)CCCNC(=O)CC[C@H](NC(=O)[C@H]1CC[C@H](CNC(=O)CCCCCCCCCCCCCCCCCCC(=O)O)CC1)C(=O)O)C(=O)O)C(C)C [Example 27, N{Epsilon-37}-[2-[2-[2-[[2-[2-[2-[[2-[2-[2-[[2-[2-[2-[[2-[bis[3-[[(4S)-4-carboxy-4-[[4-[(19-carboxynonadecanoylamino)methyl]cyclohexanecarbonyl]amino]butanoyl]amino]propyl]amino]acetyl]amino]ethoxy]ethoxy]acetyl]amino]ethoxy]ethoxy]acetyl]amino]ethoxy]ethoxy]acetyl]amino]ethoxy]ethoxy]acetyl]-[Aib8,Glu22,Arg26,Arg34,Lys37]-GLP-1-(7-37)-peptide]	138						
CC[C@H](C)[C@H](NC(=O)[C@H](Cc1ccccc1)NC(=O)[C@H](CCC(=O)O)NC(=O)[C@H](CCCNC(=N)N)NC(=O)[C@H](C)NC(=O)[C@H](C)NC(=O)[C@H](CCC(N)=O)NC(=O)[C@H](CCC(=O)O)NC(=O)[C@H](CCC(=O)O)NC(=O)[C@H](CC(C)C)NC(=O)[C@H](Cc1ccc(O)cc1)NC(=O)[C@H](CO)NC(=O)[C@H](CO)NC(=O)[C@@H](NC(=O)[C@H](CC(=O)O)NC(=O)[C@H](CO)NC(=O)[C@@H](NC(=O)[C@H](Cc1ccccc1)NC(=O)[C@@H](NC(=O)CNC(=O)[C@H](CCC(=O)O)NC(=O)C(C)(C)NC(=O)[C@@H](N)Cc1c[nH]cn1)[C@@H](C)O)[C@@H](C)O)C(C)C)C(=O)N[C@@H](C)C(=O)N[C@@H](Cc1c[nH]c2ccccc12)C(=O)N[C@@H](CC(C)C)C(=O)N[C@H](C(=O)N[C@@H](CCCNC(=N)N)C(=O)NCC(=O)N[C@@H](CCCNC(=N)N)C(=O)N[C@@H](CCCCNC(=O)COCCOCCNC(=O)COCCOCCNC(=O)CN(CCCNC(=O)COCCOCCNC(=O)COCCOCCNC(=O)COCCOCCNC(=O)COCCOCCNC(=O)CC[C@H](NC(=O)[C@H]1CC[C@H](CNC(=O)CCCCCCCCCCCCCCCCCCC(=O)O)CC1)C(=O)O)CCCNC(=O)COCCOCCNC(=O)COCCOCCNC(=O)COCCOCCNC(=O)COCCOCCNC(=O)CC[C@H](NC(=O)[C@H]1CC[C@H](CNC(=O)CCCCCCCCCCCCCCCCCCC(=O)O)CC1)C(=O)O)C(=O)O)C(C)C [Example 11]	160	0.017	0.35	33			
CC[C@H](C)[C@H](NC(=O)[C@H](Cc1ccccc1)NC(=O)[C@H](CCC(=O)O)NC(=O)[C@H](CCCNC(=N)N)NC(=O)[C@H](C)NC(=O)[C@H](C)NC(=O)[C@H](CCC(N)=O)NC(=O)[C@H](CCC(=O)O)NC(=O)[C@H](CCC(=O)O)NC(=O)[C@H](CC(C)C)NC(=O)[C@H](Cc1ccc(O)cc1)NC(=O)[C@H](CO)NC(=O)[C@H](CO)NC(=O)[C@@H](NC(=O)[C@H](CC(=O)O)NC(=O)[C@H](CO)NC(=O)[C@@H](NC(=O)[C@H](Cc1ccccc1)NC(=O)[C@@H](NC(=O)CNC(=O)[C@H](CCC(=O)O)NC(=O)C(C)(C)NC(=O)[C@@H](N)Cc1c[nH]cn1)[C@@H](C)O)[C@@H](C)O)C(C)C)C(=O)N[C@@H](C)C(=O)N[C@@H](Cc1c[nH]c2ccccc12)C(=O)N[C@@H](CC(C)C)C(=O)N[C@H](C(=O)N[C@@H](CCCNC(=N)N)C(=O)NCC(=O)N[C@@H](CCCNC(=N)N)C(=O)N[C@@H](CCCCNC(=O)CN(CCCNC(=O)COCCOCCNC(=O)COCCOCCNC(=O)COCCOCCNC(=O)COCCOCCNC(=O)COCCOCCNC(=O)COCCOCCNC(=O)CC[C@H](NC(=O)[C@H]1CC[C@H](CNC(=O)CCCCCCCCCCCCCCCCCCC(=O)O)CC1)C(=O)O)CCCNC(=O)COCCOCCNC(=O)COCCOCCNC(=O)COCCOCCNC(=O)COCCOCCNC(=O)COCCOCCNC(=O)COCCOCCNC(=O)CC[C@H](NC(=O)[C@H]1CC[C@H](CNC(=O)CCCCCCCCCCCCCCCCCCC(=O)O)CC1)C(=O)O)C(=O)O)C(C)C [Example 3]		0.02	0.41	22	159		
CC[C@H](C)[C@H](NC(=O)[C@H](Cc1ccccc1)NC(=O)[C@H](CCC(=O)O)NC(=O)[C@H](CCCNC(=N)N)NC(=O)[C@H](C)NC(=O)[C@H](C)NC(=O)[C@H](CCC(N)=O)NC(=O)[C@H](CCC(=O)O)NC(=O)[C@H](CCC(=O)O)NC(=O)[C@H](CC(C)C)NC(=O)[C@H](Cc1ccc(O)cc1)NC(=O)[C@H](CO)NC(=O)[C@H](CO)NC(=O)[C@@H](NC(=O)[C@H](CC(=O)O)NC(=O)[C@H](CO)NC(=O)[C@@H](NC(=O)[C@H](Cc1ccccc1)NC(=O)[C@@H](NC(=O)CNC(=O)[C@H](CCC(=O)O)NC(=O)C(C)(C)NC(=O)[C@@H](N)Cc1c[nH]cn1)[C@@H](C)O)[C@@H](C)O)C(C)C)C(=O)N[C@@H](C)C(=O)N[C@@H](Cc1c[nH]c2ccccc12)C(=O)N[C@@H](CC(C)C)C(=O)N[C@H](C(=O)N[C@@H](CCCNC(=N)N)C(=O)NCC(=O)N[C@@H](CCCNC(=N)N)C(=O)N1CCC[C@H]1C(=O)N[C@@H](CCCCNC(=O)CN(CCCNC(=O)COCCOCCNC(=O)COCCOCCNC(=O)COCCOCCNC(=O)COCCOCCNC(=O)COCCOCCNC(=O)COCCOCCNC(=O)CC[C@H](NC(=O)[C@H]1CC[C@H](CNC(=O)CCCCCCCCCCCCCCCCCCC(=O)O)CC1)C(=O)O)CCCNC(=O)COCCOCCNC(=O)COCCOCCNC(=O)COCCOCCNC(=O)COCCOCCNC(=O)COCCOCCNC(=O)COCCOCCNC(=O)CC[C@H](NC(=O)[C@H]1CC[C@H](CNC(=O)CCCCCCCCCCCCCCCCCCC(=O)O)CC1)C(=O)O)C(=O)O)C(C)C [Example 10] (H-H[Aib]EGTFTSDVSSYLEEQAAREFIAWLVRGRPK(X1)-OH; N-terminus and C-terminus assumed)	151						
CC[C@H](C)[C@H](NC(=O)[C@H](Cc1ccccc1)NC(=O)[C@H](CCC(=O)O)NC(=O)[C@H](CCCNC(=N)N)NC(=O)[C@H](C)NC(=O)[C@H](C)NC(=O)[C@H](CCC(N)=O)NC(=O)[C@H](CCC(=O)O)NC(=O)[C@H](CCC(=O)O)NC(=O)[C@H](CC(C)C)NC(=O)[C@H](Cc1ccc(O)cc1)NC(=O)[C@H](CO)NC(=O)[C@H](CO)NC(=O)[C@@H](NC(=O)[C@H](CC(=O)O)NC(=O)[C@H](CO)NC(=O)[C@@H](NC(=O)[C@H](Cc1ccccc1)NC(=O)[C@@H](NC(=O)CNC(=O)[C@H](CCC(=O)O)NC(=O)C(C)(C)NC(=O)[C@@H](N)Cc1c[nH]cn1)[C@@H](C)O)[C@@H](C)O)C(C)C)C(=O)N[C@@H](C)C(=O)N[C@@H](Cc1c[nH]c2ccccc12)C(=O)N[C@@H](CC(C)C)C(=O)N[C@H](C(=O)N[C@@H](CCCNC(=N)N)C(=O)NCC(=O)N[C@@H](CCCNC(=N)N)C(=O)N[C@@H](CCCCNC(=O)CN(CCCNC(=O)CCOCCOCCOCCOCCOCCOCCOCCOCCOCCOCCOCCOCCOCCOCCOCCOCCOCCOCCOCCOCCOCCOCCOCCOCCNC(=O)[C@@H](N)CCCCNC(=O)[C@@H](N)CCCCNC(=O)CCCCCCCCCCCCCCCCCCC(=O)O)CCCNC(=O)CCOCCOCCOCCOCCOCCOCCOCCOCCOCCOCCOCCOCCOCCOCCOCCOCCOCCOCCOCCOCCOCCOCCOCCOCCNC(=O)[C@@H](N)CCCCNC(=O)[C@@H](N)CCCCNC(=O)CCCCCCCCCCCCCCCCCCC(=O)O)C(=O)O)C(C)C [Example 6]		0.0072		9		0.05	143
